In PMC10893631, “Receptor-based pharmacophore modeling, molecular docking, synthesis and biological evaluation of novel VEGFR-2, FGFR-1, and BRAF multi-kinase inhibitors” (BMC Chemistry, 2024):
Where two headings read alike, the source gives them in different places.

Columns and labels:
Assay type in all cases: cell-based, human
[1] = tested on: SK-OV-3; assay: NCI SRB growth inhibition (single dose 10 µM / five-dose); settings: Homo sapiens
In short: (§1)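 TCA fixation ends the assay for adherent lines; unbound SRB is rinsed off five times with 1% acetic acid. Drug is added from a DMSO concentrate at 400× the maximum final concentration, made up to 2× in gentamicin-containing medium, then halved on addition to wells.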

[2] = tested on: NCI-H322M; assay: as above; settings: Homo sapiens
In short: as §1

[3] = tested on: COLO 205; assay: as above; settings: Homo sapiens
In short: as §1

[4] = tested on: NCI-H460; assay: as above; settings: Homo sapiens
In short: as §1

[5] = tested on: PC-3; assay: as above; settings: Homo sapiens
In short: as §1

[6] = tested on: UACC-62; assay: as above; settings: Homo sapiens
In short: as §1

[7] = tested on: HCT-15; assay: as above; settings: Homo sapiens
In short: as §1

[8] = tested on: NCI-H23; assay: as above; settings: Homo sapiens
In short: as §1

[9] = tested on: HL-60(TB); assay: as above; settings: Homo sapiens
In short: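 After a 24 h pre-incubation, cells received drug at five serially diluted concentrations; two untreated plates per line were TCA-fixed at drug addition as Tz. Adherent plates were fixed with cold TCA, stained with SRB and washed with 1% acetic acid.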

[10] = tested on: SN12C; assay: as above; settings: Homo sapiens; SN12C, Renal cancer; five-dose
In short: as §1

[11] = tested on: T-47D; assay: as above; settings: Homo sapiens, T47D
In short: as §1

[12] = tested on: NCI-H522; assay: as above; settings: Homo sapiens
In short: as §1

[13] = tested on: HOP-62; assay: as above; settings: Homo sapiens
In short: as §1

[14] = tested on: IGROV1; assay: as above; settings: Homo sapiens, IGROV-1
In short: as §1

[15] = tested on: U251; assay: as above; settings: Homo sapiens, U-251
In short: as §1

[16] = tested on: UO-31; assay: as above; settings: Homo sapiens
In short: as §1

[17] = tested on: OVCAR-4; assay: as above; settings: Homo sapiens
In short: as §1

[18] = tested on: OVCAR-8; assay: as above; settings: Homo sapiens
In short: as §1

[19] = tested on: SF-268; assay: as above; settings: Homo sapiens
In short: as §1

[20] = tested on: KM12; assay: as above; settings: Homo sapiens
In short: as §1

[21] = tested on: MDA-MB-435; assay: as above; settings: Homo sapiens
In short: as §1

[22] = tested on: OVCAR-3; assay: as above; settings: Homo sapiens
In short: as §1

[23] = tested on: NCI panel of 60 tumor cell lines; assay: NCI SRB growth inhibition, whole panel mean (single dose 10 µM / five-dose); settings: Homo sapiens
In short: as §1

How did the inhibition at 10 µM ([1]; SK-OV-3 (Ovarian cancer), 10 µM, read-out: GI%) turn out when `COc1cccc(C=NNC(=O)c2ccc3[nH]c(-c4ccc(Cl)cc4)nc3c2)c1O` [8r, 2-(4-Chlorophenyl)-N'-(2-hydroxy-3-methoxybenzylidene)-1H-benzo[d]imidazole-5-carbohydrazide] was run?
The inhibition at 10 µM was > 100%.

And the GI50 ([1]; SK-OV-3, Ovarian cancer, five-dose)?
Its GI50 is 2.08 µM.

What about the inhibition at 10 µM ([2]; NCI-H322M (Non-small cell lung cancer), 10 µM, read-out: GI%) of the same molecule?
Its inhibition at 10 µM is > 100%.

What about the GI50 ([2]; NCI-H322M, Non-small cell lung cancer, five-dose) of the same molecule?
The GI50 was 1.59 µM.

And the inhibition at 10 µM ([3]; COLO 205 (Colon cancer), 10 µM, read-out: GI%)?
Its inhibition at 10 µM is > 100%.

What about the GI50 ([3]; COLO 205, Colon cancer, five-dose) of the same molecule?
Its GI50 is 2.33 µM.

And the inhibition at 10 µM ([4]; NCI-H460 (Non-small cell lung cancer), 10 µM, read-out: GI%)?
The inhibition at 10 µM was > 100%.

And the GI50 ([4]; NCI-H460, Non-small cell lung cancer, five-dose)?
Its GI50 is 1.35 µM.

And the inhibition at 10 µM ([5]; PC-3 (Prostate cancer), 10 µM, read-out: GI%)?
The inhibition at 10 µM was > 100%.

What about the GI50 ([5]; PC-3, Prostate cancer, five-dose) of the same molecule?
Its GI50 is 1.62 µM.

What about the inhibition at 10 µM ([6]; UACC-62 (Melanoma), 10 µM, read-out: GI%) of the same molecule?
The inhibition at 10 µM was > 100%.

And the GI50 ([6]; UACC-62, Melanoma, five-dose)?
The GI50 was 1.23 µM.

What about the inhibition at 10 µM ([7]; HCT-15 (Colon cancer), 10 µM, read-out: GI%) of the same molecule?
The inhibition at 10 µM was 95.2%.

What about the GI50 ([7]; HCT-15, Colon cancer, five-dose) of the same molecule?
The GI50 was 2.72 µM.

And the inhibition at 10 µM ([8]; NCI-H23 (Non-small cell lung cancer), 10 µM, read-out: GI%)?
Its inhibition at 10 µM is > 100%.

And the GI50 ([8]; NCI-H23, Non-small cell lung cancer, five-dose)?
Its GI50 is 1.15 µM.

What about the inhibition at 10 µM ([9]; HL-60(TB) (Leukemia), 10 µM, read-out: GI%) of the same molecule?
Its inhibition at 10 µM is > 100%.

What about the GI50 ([9]; HL-60(TB), Leukemia, five-dose) of the same molecule?
The GI50 was 1.95 µM.

What about the GI50 [10] of the same molecule?
The GI50 was 1.72 µM.

What about the inhibition at 10 µM ([11]; T-47D (Breast cancer), 10 µM, read-out: GI%) of the same molecule?
Its inhibition at 10 µM is > 100%.

And the GI50 ([11]; T-47D, Breast cancer, five-dose)?
The GI50 was 0.6 µM.

What about the inhibition at 10 µM ([12]; NCI-H522 (Non-small cell lung cancer), 10 µM, read-out: GI%) of the same molecule?
Its inhibition at 10 µM is > 100%.

What about the GI50 ([12]; NCI-H522, Non-small cell lung cancer, five-dose) of the same molecule?
Its GI50 is 1.17 µM.

What about the inhibition at 10 µM ([13]; HOP-62 (Non-small cell lung cancer), 10 µM, read-out: GI%) of the same molecule?
Its inhibition at 10 µM is > 100%.

What about the GI50 ([13]; HOP-62, Non-small cell lung cancer, five-dose) of the same molecule?
The GI50 was 1.04 µM.

And the inhibition at 10 µM ([14]; IGROV1 (Ovarian cancer), 10 µM, read-out: GI%)?
The inhibition at 10 µM was > 100%.

And the GI50 ([14]; IGROV1, Ovarian cancer, five-dose)?
Its GI50 is 1.25 µM.

What about the inhibition at 10 µM ([15]; U251 (CNS cancer), 10 µM, read-out: GI%) of the same molecule?
The inhibition at 10 µM was > 100%.

What about the GI50 ([15]; U251, CNS cancer, five-dose) of the same molecule?
Its GI50 is 1.5 µM.

What about the inhibition at 10 µM ([16]; UO-31 (Renal cancer), 10 µM, read-out: GI%) of the same molecule?
Its inhibition at 10 µM is > 100%.

And the GI50 ([16]; UO-31, Renal cancer, five-dose)?
The GI50 was 2.07 µM.

What about the inhibition at 10 µM ([17]; OVCAR-4 (Ovarian cancer), 10 µM, read-out: GI%) of the same molecule?
Its inhibition at 10 µM is > 100%.

And the GI50 ([17]; OVCAR-4, Ovarian cancer, five-dose)?
Its GI50 is 1.41 µM.

And the inhibition at 10 µM ([18]; OVCAR-8 (Ovarian cancer), 10 µM, read-out: GI%)?
The inhibition at 10 µM was > 100%.

And the GI50 ([18]; OVCAR-8, Ovarian cancer, five-dose)?
Its GI50 is 1.58 µM.

What about the inhibition at 10 µM ([19]; SF-268 (CNS cancer), 10 µM, read-out: GI%) of the same molecule?
Its inhibition at 10 µM is > 100%.

And the GI50 ([19]; SF-268, CNS cancer, five-dose)?
Its GI50 is 1.21 µM.

What about the inhibition at 10 µM ([20]; KM12 (Colon cancer), 10 µM, read-out: GI%) of the same molecule?
The inhibition at 10 µM was > 100%.

And the GI50 ([20]; KM12, Colon cancer, five-dose)?
The GI50 was 1.66 µM.

And the inhibition at 10 µM ([21]; MDA-MB-435 (Melanoma), 10 µM, read-out: GI%)?
Its inhibition at 10 µM is > 100%.

And the GI50 ([21]; MDA-MB-435, Melanoma, five-dose)?
Its GI50 is 1.81 µM.

What about the inhibition at 10 µM ([22]; OVCAR-3 (Ovarian cancer), 10 µM, read-out: GI%) of the same molecule?
The inhibition at 10 µM was > 100%.

And the GI50 ([22]; OVCAR-3, Ovarian cancer, five-dose)?
Its GI50 is 0.56 µM.

What about the inhibition at 10 µM ([23]; mean over NCI 60 cell lines, > 100% = lethal effect, read-out: mean growth inhibition % (GI%)) of the same molecule?
Its inhibition at 10 µM is > 100%.

What about the GI50 ([23]; mean over NCI cancer cell lines, five-dose) of the same molecule?
The GI50 was 3.39 µM.

What about the inhibition at 10 µM ([23]; mean over NCI panel of 60 tumor cell lines, read-out: Mean growth inhibition %) of the same molecule?
Its inhibition at 10 µM is > 100%.
